The values that follow come from patent US20240209011A1, “HETEROAROMATIC PHOSPHONIUM SALTS FOR TREATING CANCER” (FLORATEK PHARMA S.A., priority 2021, published 2024).

Structures are written as SMILES. Where only a bound is given, the exact number is not on record here.

Format in all cases: cell-based
For one test, the system named is A549. Description: Cell viability assay (CellTiter-Blue/CellTiter-Glow). As to conditions: Homo sapiens; lung carcinoma cell line A549; absolute IC50; 72 h. The method, then: (§1) Antitumor activity of the compounds and doxorubicin as a positive control was assessed by using the CellTiter-Blue Cell Viability Assay (Promega, #G8082) or CellTiter-Glow® Luminescent Cell Viability assay (Promega #G7572) according to the manufacturer's instructions. The compounds were tested at 5 or 6 concentrations in half-log increments (highest concentration 30 μM or 100 μM) in duplicate or triplicate well conditions.
(§2) Tumor cells were grown at 37° C. in a humidified atmosphere with 5% CO2 in RPMI 1640 or DMEM medium, supplemented with 10% (v/v) fetal calf serum and 50 μg/ml gentamicin for up to 20 passages, and were passaged once or twice weekly. Cells were harvested using TrypLE or PBS buffer containing 1 mM EDTA, and the percentage of viable cells is determined using a CASY Model TI cell counter (OMNI Life Science). Cells were harvested from exponential phase cultures, counted and plated in 96 well flat-bottom microtiter plates at a cell density depending on the cell line's growth rate (4,000-20,000 cells/well depending on the cell line's growth rate, up to 60,000 for hematological cancer cell lines) in RPMI 1640 or DMEM medium supplemented with 10% (v/v) fetal calf serum and 50 μg/ml gentamicin (140 μl/well). Cultures were incubated at 37° C. and 5% CO2 in a humidified atmosphere. After 24 h, 10 μl of test compounds or control medium were added, and left on the cells for another 72 h. Compounds were serially diluted in DMSO, transferred in cell culture medium, and added to the assay plates. The DMSO concentration was kept constant at <0.3% v/v across the assay plate. Viability of cells was quantified by the CellTiter-Blue® cell viability assay (Promega G8081) or CellTiter-Glow® Luminescent Cell Viability assay (Promega #G7572). Fluorescence (FU) was measured by using the EnSpire® multimode plate reader (Perkin Elmer) (excitation X=570 nm, emission λ=600 nm). Luminescence was measured with a microplate luminometer (Promega or PerkinElmer).
(§3) Sigmoidal concentration-response curves were fitted to the data points (test-versus-control, T/C values) obtained for each tumor model using 4 parameter non-linear curve fit (Charles River DRS Datawarehouse Software) or with GraphPad prism 5.02 software. IC50 values are reported as absolute IC50 values, being the concentration of test compound at the intersection of the concentration-response curves with T/C=50% Cell lines tested are presented in Table 1.
(In general: Resazurin is reduced to fluorescent resorufin, in cell work by metabolically active cells.)

The test system of the next test is NCI-H460. The description is as above. Conditions: Homo sapiens; lung carcinoma cell line NCI-H460; absolute IC50; 72 h. On the procedure: as §1, §2, §3
The next test concerns SF-268. The description is as above. Conditions: Homo sapiens; brain carcinoma cell line SF-268; absolute IC50; 72 h. On the procedure: as §1, §2, §3
Another test concerns K-562. The test is described as above. Conditions: Homo sapiens, K562; leukaemia cell line K-562; absolute IC50; 72 h. The method, then: as §1, §2, §3
The subject of the next test is OVCAR-3. The test is described as above. Conditions: Homo sapiens; ovarian carcinoma cell line OVCAR-3; absolute IC50; 72 h. The method, then: as §1, §2, §3
The next test concerns U-87. The description is as above. Conditions: Homo sapiens, U-87 MG; brain carcinoma cell line U-87; absolute IC50; 72 h. The method, then:
as §1, §2, §3

For a further test, the system named is H1299. The test is described as above. Conditions: Homo sapiens, NCI-H1299; lung carcinoma cell line H1299; absolute IC50; 72 h. The method, then:
as §1, §2, §3

The subject of the next test is CALU-6. The test is described as above. As to conditions: Homo sapiens; lung carcinoma cell line CALU-6; absolute IC50; 72 h. On the procedure: as §1, §2, §3
For the next test, the system named is HT-29. Described as above. Conditions: Homo sapiens; colon carcinoma cell line HT-29; absolute IC50; 72 h. On the procedure:
as §1, §2, §3

The subject of another test is Mia-Pa-Ca-2. The description is as above. As to conditions: Homo sapiens, MIA PaCa-2; pancreatic carcinoma cell line Mia-Pa-Ca-2; absolute IC50; 72 h. On the procedure:
as §1, §2, §3

The next test deals with HCT-15. The test is described as above. As to conditions: Homo sapiens; colon carcinoma cell line HCT-15; absolute IC50; 72 h. The method, then:
as §1, §2, §3

Another test relates to SK-OV-3. The test is described as above. As to conditions: Homo sapiens; ovarian carcinoma cell line SK-OV-3; absolute IC50; 72 h. On the procedure: as §1, §2, §3
A further test relates to lung carcinoma cell. Description: Activity against lung carcinoma cells. As to conditions: lung carcinoma cell growth; text summary of Tables 14A-14C. On the procedure:
as §1, §2, §3

Another test concerns lung PDX. The test can be described thus: Activity against lung PDX. As to conditions: lung PDX growth; Table 16. The method, then:
(§4) PDX-derived cell cultures were obtained from tumors explanted from mice and isolated by mechanical and enzymatic dissociation. […] Cells were harvested and seeded in 96-wells plates at a density of 1.25 to 5×10^3 cells/well for cytotoxicity assays. Cells were incubated 48 h at 37° C. prior to addition of test molecules and vehicle (DMSO, 0.1%) at desired final concentrations. Cell viability was assessed before drugs' addition (To) and 5 days after test molecules addition by measuring ATP cell content using CellTiter-Glo® Luminescent Cell Viability Assay (Promega) according to the manufacturer's instructions. Luciferase activity was measured on a luminometer (PerkinElmer® EnVision™). Each concentration of compounds was tested in triplicate.
(§5) Viability was calculated as a percentage of ATP value compared to vehicle treated controls.
(§6) For PDX primary cell cultures, the tumour tissue was washed with PBS containing antibiotic-antimycotic and non-tumour tissue and necrotic tumour tissues were separated. The tumour tissue was transferred to a new dish and cut into 1-2 mm^3 fragments, resuspended in RPMI-1640 medium and centrifuged at 1,200 rpm for 6 min at room temperature. The pelleted material was resuspended with 15 mL of Tumour Cell Digestion Solution and incubated at 37° C. for 1 hour with agitation. Following further addition of media, centrifugation and passage through a […] cell strainer, the homogenous cell mixture was layered onto 15 mL of Ficoll-Paque PLUS in a 50 mL conical tube and centrifuged for 15 min at 1,600 rpm. The interface cells were collected, washed with media, separated by centrifugation at 1,200 rpm. The cell pellet was resuspended in serum free media supplemented with growth factors. 10,000 cells/wells were plated in a 96 well plate and incubated at 37° C., 5% CO2, 95% air and 100% relative humidity overnight. The cytotoxicity assay was conducted as above. IC50 values represent absolute IC50.

The test system of the next test is KM-12. Description: Cell viability assay (CellTiter-Blue/CellTiter-Glow). Conditions: Homo sapiens, KM12; colon carcinoma cell line KM-12; absolute IC50. The method, then:
as §1, §2, §3

The next test concerns lymphoma PDX. Description: Activity against lymphoma PDX. As to conditions: lymphoma PDX growth; Table 17. The method, then:
as §4, §5, §6

With `O=c1cc(-c2ccc(CCCC[P+](c3ccccc3)(c3ccccc3)c3ccccc3)cc2)oc2c(O)c(O)ccc12` [SND118, 4-[4-(7,8-dihydroxy-4-oxo-chromen-2-yl)phenyl]butyltriphenyl-phosphonium bromide], the IC50 – broadly, the point on the concentration scale where inhibition reaches its midpoint – came to 12.5 µM with A549; 0.29 µM in the test on NCI-H460; 15.6 µM in the test on SF-268; 0.14 µM in the test with K-562; 7.3 µM in the test on OVCAR-3; 1.76 µM in the test with U-87. Further, the 50% inhibitory concentration (IC50) in the test on H1299 came out at 1.28 µM; in the test on CALU-6 it was 1.47 µM; in the test on HT-29, 10.3 µM; in the test with Mia-Pa-Ca-2 it was 1.9 µM; in the test on HCT-15, 3.3 µM; in the test on SK-OV-3, 6.35 µM. Moreover, the concentration for half-maximal inhibition (IC50) with lung carcinoma cell was less than 20 µM.

`O=c1cc(-c2ccc(CCCC[P+](c3ccccc3)(c3ccccc3)c3ccccc3)cc2)oc2c3c(ccc12)OCO3.[Br-]` [SND123, 4-[4-(6-oxo-[1,3]dioxolo[4,5-h]chromen-8-yl)phenyl]butyl-triphenylphosphonium bromide]: the IC50 was less than 20 µM with lung PDX; 8.08 µM with A549; 3 µM in the test on KM-12; 5.04 µM in the test on NCI-H460; 3.15 µM in the test with SF-268; 2.36 µM in the test with OVCAR-3. The IC50 with U-87 is 0.87 µM; in the test with CALU-6 it was 1.14 µM; with HT-29, 9.3 µM; in the test on Mia-Pa-Ca-2 it was 1.32 µM; in the test with HCT-15, 9.3 µM; in the test with lymphoma PDX, less than 5 µM. Further, the half-inhibitory concentration (IC50) in the test on lung carcinoma cell was less than 20 µM.

For the compound `CCNC(=O)Oc1ccc2c(=O)cc(-c3ccc(CCCC[P+](c4ccccc4)(c4ccccc4)c4ccccc4)cc3)oc2c1OC(=O)NCC.[Br-]` [SND124, 4-[4-[7,8-Bis(ethylcarbamoyloxy)-4-oxo-chromen-2-yl]phenyl]-butyltriphenylphosphonium bromide], the IC50 is less than 20 µM with lung PDX; 11.2 µM in the test with A549; 2.7 µM in the test with KM-12; 0.02 µM with K-562; 1.18 µM in the test with U-87; 4.27 µM with H1299. Also, the IC50 with HT-29 was 2.96 µM; with Mia-Pa-Ca-2, 4.8 µM; in the test with HCT-15, 10 µM; with SK-OV-3, 3.4 µM; in the test on lymphoma PDX it was less than 5 µM; with lung carcinoma cell, less than 20 µM.

On to `CCNC(=O)Oc1ccc2c(=O)cc(-c3ccc(CCCC[P+](c4ccccc4)(c4ccccc4)c4ccccc4)cc3)oc2c1O.[Br-]` [SND126A, 4-[4-[7-(Ethylcarbamoyloxy)-8-hydroxy-4-oxo-chromen-2-yl]phenyl]butyltriphenylphosphonium bromide], for which the IC50 was less than 20 µM in the test on lung PDX; 3.2 µM in the test with KM-12; 10.7 µM in the test with SF-268; 6.54 µM with OVCAR-3; 0.96 µM in the test with Mia-Pa-Ca-2; less than 5 µM in the test with lymphoma PDX.

Regarding `CC(C)NC(=O)Oc1ccc2c(=O)cc(-c3ccc(CCCC[P+](c4ccccc4)(c4ccccc4)c4ccccc4)cc3)oc2c1O` [SND127, 4-[4-[7-(Isopropylcarbamoyloxy)-8-hydroxy-4-oxo-chromen-2-yl]phenyl]butyltriphenylphosphonium bromide], the IC50 in the test with A549 was 5.3 µM; with NCI-H460, 5.58 µM; in the test with SF-268 it was 11.9 µM; in the test on K-562, 1.23 µM; with OVCAR-3, 5.7 µM; in the test with U-87, 3.8 µM. Also, the IC50 in the test with H1299 was 12.7 µM; with CALU-6, 7.13 µM; with HT-29 it was 6.4 µM; with Mia-Pa-Ca-2, 1.81 µM; with SK-OV-3, 11.5 µM; with lung carcinoma cell it was less than 20 µM.

Take `COc1c(O)ccc2c(=O)cc(-c3ccc(CCCC[P+](c4ccccc4)(c4ccccc4)c4ccccc4)cc3)oc12.[Br-]` [SND140, (4-(4-(7-hydroxy-8-methoxy-4-oxo-4H-chromen-2-yl)phenyl)butyl)triphenylphosphonium bromide]: the IC50 in the test on lung PDX was less than 20 µM; in the test on KM-12, 5.6 µM; in the test with NCI-H460 it was 10.8 µM; in the test on SF-268, 9.5 µM; in the test on OVCAR-3, 8.87 µM; with U-87, 5.4 µM. Besides, the IC50 with CALU-6 is 3.8 µM; in the test with HT-29, 14.2 µM; in the test with lymphoma PDX, less than 5 µM; in the test on lung carcinoma cell, less than 20 µM.
